Assay results published in ChEMBL document CHEMBL3232765, “Anti-mycobacterial activity of 1,3-diaryltriazenes” (Eur J Med Chem, 2014).
Activity calls are given as the source filed them. The rule behind the calls is not given here.

Test system: Mycobacterium tuberculosis
Assay: Antimycobacterial activity against multidrug-resistant Mycobacterium tuberculosis LAM-1 at 0.73 uM after 4 to 6 days by BACTEC MGIT 960 assay
Assay type: functional, organism-based

For `NNC(=O)c1ccncc1` [ISONIAZID], the Activity was “inactive”.
